Source: patent publication US6326390A (King Pharmaceuticals Reseach and Development, Inc., priority 1999, dated 2001)
Read-outs that look alike come from different tables or passages of the source.

What was measured:
cerebral ischemia = conditions: chronic administration; cited from earlier work
JURKAT cell line = assay: [^125 I]-ABMECA binding on cell membranes of tumor cell lines: JURKAT; parameters: species or system human
Description: (§1) A series of binding experiments were performed on various tumor cell lines, using […] [^125 I]-ABMECA, with unspecific binding determined in the presence of 50 μM R-PIA or 200 μM NECA, on cell membranes of the cell lines. Specific binding was determined by substracting unspecific binding from total binding. The cell lines were the HL 60, NB4, SKN-MC, SKN-Be2C, SKN-SH and JURKAT cell lines.

SKN-SH cell line = assay: [^125 I]-ABMECA binding on cell membranes of tumor cell lines: SKN-SH
Description: as §1

HL 60 cell line = assay: [^125 I]-ABMECA binding on cell membranes of tumor cell lines: HL 60; parameters: species or system human
Description: as §1

SKN-MC cell line = assay: [^125 I]-ABMECA binding on cell membranes of tumor cell lines: SKN-MC
Description: as §1

NB4 cell line = assay: [^125 I]-ABMECA binding on cell membranes of tumor cell lines: NB4
Description: as §1

[1] = biological target: T1, human A3 receptors expressed in HEK 293 cells (Homo sapiens, UniProt P0DMS8); conditions: saturation, n=3
T1 sequence (P0DMS8 1-318): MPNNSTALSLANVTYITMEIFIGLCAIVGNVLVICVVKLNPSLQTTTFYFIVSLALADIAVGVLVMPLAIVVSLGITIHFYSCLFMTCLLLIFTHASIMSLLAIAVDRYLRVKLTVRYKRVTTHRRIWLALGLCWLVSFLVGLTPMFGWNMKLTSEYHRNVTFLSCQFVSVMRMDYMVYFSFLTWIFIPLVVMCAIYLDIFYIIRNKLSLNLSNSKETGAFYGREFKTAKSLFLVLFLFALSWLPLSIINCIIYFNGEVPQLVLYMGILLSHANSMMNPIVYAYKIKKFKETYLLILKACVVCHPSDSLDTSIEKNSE
Description: Incubation time was 60 min at 37° C., according to the results of previous time-course experiments. Bound and free radioactivity were separated by filtering the assay mixture through Whatman GF/B glass-fiber filters using a Brandel cell harvester. Non-specific binding was defined as binding in the presence of 50 μM R-PIA and was about 30% of total binding. The incubation mixture was diluted with 3 ml of ice-cold incubation buffer, rapidly vacuum filtered and the filter was washed three times with 3 ml of incubation buffer. The filter bound radioactivity was counted in a Beckman gamma 5500B γ counter. The protein concentration can be determined according to a Bio-Rad method (3) with bovine albumin as reference standard.
Non-specific binding was defined in the presence of 50 μM R-PIA and was about 30% of total binding. Incubation time was 60 min at 37° C., according to the results of previous time-course experiments. Bound and free radioactivity was separated by filtering the assay mixture through Whatman GF/B glass-fiber filters using a Brandel cell harvester.

[2] = biological target: T2, human A3 receptors expressed in the JURKAT cell line (Homo sapiens, UniProt P0DMS8); conditions: Jurkat cell membranes, [^125 I]AB-MECA
T2 sequence (P0DMS8 1-318): T1 sequence (P0DMS8 1-318)
Description: Jurkat cell lines appeared to provide the best results of the cell lines tested. A saturation experiment was performed using Jurkat cell lines at 37° C., with a one hour incubation period, using [^125 I]-ABMECA (0.125-1.5 nM), with nonspecific binding measured using RPIA (50 μM).

SKN-Be2C cell line = assay: [^125 I]-ABMECA binding on cell membranes of tumor cell lines: SKN-Be2C
Description: as §1

[3] = biological target: T3, adenosine A3 receptors in HL60 membranes (Homo sapiens, UniProt P0DMS8); assay: Saturation of Compound 1 binding to A3 receptors in HL60 membranes
T3 construct: characterization of A3 receptors in some human tumor cell lines; endogenous in cells; host or cells: HL60 (human promyelocytic leukaemia), membranes
T3 sequence (P0DMS8 1-318): T1 sequence (P0DMS8 1-318)

[4] = biological target: T4, adenosine A3 receptors in Jurkat cell membranes (Homo sapiens, UniProt P0DMS8); assay: Saturation of Compound 1 binding to A3 receptors in Jurkat cell membranes
T4 construct: characterization of A3 receptors in some human tumor cell lines; endogenous in cells; host or cells: Jurkat (human T-cell leukaemia), membranes
T4 sequence (P0DMS8 1-318): T1 sequence (P0DMS8 1-318)

[5] = biological target: T5, rat brain A1 adenosine receptor (Rattus norvegicus, UniProt P25099); assay: Rat A1 adenosine receptor binding assay, displacement of [^3 H]CHA; conditions: rat brain membranes, [^3 H]CHA 1 nM; read-out: rA1 (Ki)
T5 construct: membranes of rat brain; from tissue; host or cells: whole brain membranes of male Wistar rats
T5 sequence (P25099 1-326): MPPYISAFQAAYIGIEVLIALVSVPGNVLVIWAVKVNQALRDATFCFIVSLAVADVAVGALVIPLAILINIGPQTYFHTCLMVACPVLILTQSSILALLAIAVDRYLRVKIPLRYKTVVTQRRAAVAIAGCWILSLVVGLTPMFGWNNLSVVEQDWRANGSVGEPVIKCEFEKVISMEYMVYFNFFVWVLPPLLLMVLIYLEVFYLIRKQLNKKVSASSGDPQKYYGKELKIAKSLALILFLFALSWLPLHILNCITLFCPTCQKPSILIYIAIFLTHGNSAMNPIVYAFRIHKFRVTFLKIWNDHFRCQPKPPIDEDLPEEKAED
Description: Male Wistar rats (200-250 g) were decapitated and the whole brain and striatum dissected on ice. […] After 30 min incubation at 37° C., the membranes were centrifuged and pellets were stored at -80° C. Prior to freezing, an aliquot of homogenate was removed for protein assay with bovine albumin as reference standard. Binding assays were performed on rat brain and striatum membranes respectively, in the presence of 10 mM MgCl2 at 25° C. All buffer solutions were adjusted to maintain a constant pH of 7.4.
Separation of bound from free radio ligand was performed by rapid filtration through Whatman GF/B filters which were washed three times with ice-cold buffer. Filter bound radioactivity was measured by scintillation spectrometry after addition of 5 mL of Aquassure. […] Incubation time ranged from 150 min. at 0° C. to 75 min at 30° C. according to the results of previous time-course experiments. Ki values were calculated from the Cheng-Prusoff equation. All binding data were analyzed using the nonlinear regression curve-fitting computer program LIGAND.

CNC(=O)[C@H]1O[C@@H](n2cnc3c(NCc4cccc(I)c4)ncnc32)[C@H](O)[C@@H]1O [IB-MECA]
protection against cerebral ischemia (cerebral ischemia): protects against cerebral ischemia

CNC(=O)[C@H]1O[C@@H](n2cnc3c(NCc4ccc(N)c([125I])c4)ncnc32)[C@H](O)[C@@H]1O [[^125 I]AB-MECA, N^6-(4-amino-3-iodobenzyl)-5'-(N-methylcarbamoyl)adenosine]
Percent Specific Binding (JURKAT cell line; JURKAT): 38%
Total Binding (JURKAT cell line; JURKAT cell membranes): 7599
Unspecific Binding (JURKAT cell line; JURKAT, 50 μM R-PIA or 200 μM NECA): 4753
Specific Binding (JURKAT cell line; JURKAT, total minus unspecific): 2846 cpm
Percent Specific Binding (SKN-SH cell line; SKN-SH): 3%
Total Binding (SKN-SH cell line; SKN-SH cell membranes): 2671
Unspecific Binding (SKN-SH cell line; SKN-SH, 50 μM R-PIA or 200 μM NECA): 2580
Specific Binding (SKN-SH cell line; SKN-SH, total minus unspecific): 91 cpm
Percent Specific Binding (HL 60 cell line; HL 60): 20%
Unspecific Binding (HL 60 cell line; HL 60, 50 μM R-PIA or 200 μM NECA): 2791
Specific Binding (HL 60 cell line; HL 60, total minus unspecific): 693 cpm
Total Binding (HL 60 cell line; HL 60 cell membranes): 3484
Percent Specific Binding (SKN-MC cell line; SKN-MC): 17%
Total Binding (SKN-MC cell line; SKN-MC cell membranes): 7528
Unspecific Binding (SKN-MC cell line; SKN-MC, 50 μM R-PIA or 200 μM NECA): 6220
Specific Binding (SKN-MC cell line; SKN-MC, total minus unspecific): 1308 cpm
Percent Specific Binding (NB4 cell line; NB4): 19%
Unspecific Binding (NB4 cell line; NB4, 50 μM R-PIA or 200 μM NECA): 2740
Specific Binding (NB4 cell line; NB4, total minus unspecific): 637 cpm
Total Binding (NB4 cell line; NB4 cell membranes): 3377
Bmax value [1]: 62±1 fmol/mg protein
Bmax (density of A3 receptor) [2]: approximately 300 fmol/mg protein
Bmax (density of A3 receptor) ([2]; listed as [^125 I]-ABMECA): 290 fmol/mg protein
Percent Specific Binding (SKN-Be2C cell line; SKN-Be2C): 24%
Total Binding (SKN-Be2C cell line; SKN-Be2C cell membranes): 6000
Unspecific Binding (SKN-Be2C cell line; SKN-Be2C, 50 μM R-PIA or 200 μM NECA): 4585
Specific Binding (SKN-Be2C cell line; SKN-Be2C, total minus unspecific): 1415 cpm

CCCn1cc2c(nc(NC(=O)Nc3ccc(OC)cc3)n3nc(-c4ccco4)nc23)n1 [Compound 1, 5-[[(4-Methoxyphenyl)amino]carbonyl]amino-8-propyl-2-(2-furyl)-pyrazolo[4,3-e] 1,2,4-triazolo[1,5-c]pyrimidine]
density of adenosine A3 receptors detected ([3]; HL60 cells, tritiated analogue of Compound 1): ~650 fmol/mg protein
Bmax value ([3]; HL60 membranes, 0.1 to 10 nM, n=3): 626±42 fmol/mg protein
density of adenosine A3 receptors detected ([4]; Jurkat cells, tritiated analogue of Compound 1): approximately 1300 fmol/mg protein
Bmax value ([4]; Jurkat membranes, 0.2 to 15 nM, n=3): 1.30±0.03 pmol/mg protein
Ki [5]: > 10 µM
